Each block holds one compound with its values, some of them ahead of it.
Target: T1, JMJD2C (Homo sapiens, UniProt Q9H3R0)
T1 construct: purchased BPS Bioscience 50105
T1 sequence (Q9H3R0 2-372): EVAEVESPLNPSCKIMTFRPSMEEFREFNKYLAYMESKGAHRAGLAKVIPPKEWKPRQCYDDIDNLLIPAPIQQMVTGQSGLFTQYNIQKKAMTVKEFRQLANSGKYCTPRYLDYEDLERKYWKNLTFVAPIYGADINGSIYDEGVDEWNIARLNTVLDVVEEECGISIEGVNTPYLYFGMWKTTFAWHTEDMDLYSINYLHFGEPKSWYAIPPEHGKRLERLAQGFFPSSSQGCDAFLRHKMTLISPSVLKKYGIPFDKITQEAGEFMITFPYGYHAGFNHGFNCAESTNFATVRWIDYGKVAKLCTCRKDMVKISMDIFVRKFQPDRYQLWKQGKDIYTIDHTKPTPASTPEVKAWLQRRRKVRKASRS
Test: JMJD2C in vitro enzyme inhibition assay (TR-FRET)
Type: biochemical
Settings: Table 5; 0.3 nM JMJD2C, H3K9me3-biotin labeled peptide
Description: This assay determines the ability of a test compound to inhibit Jarid1B, JMJD2C and JMJD3 demethylase activity. Baculovirus expressed Jarid1B (GenBank Accession #NM-006618, AA 2-751) was purchased from BPS Bioscience (Cat #50121) or custom made by MolecularThroughput. Baculovirus expressed JMJD2C (GenBank Accession #BC143571, AA 2-372) was purchased from BPS Bioscience (Cat#50105). Baculovirus expressed JMJD3 (GenBank Accession #NM-001080424, AA1043-end) was purchased from BPS Bioscience (Cat#50115).
The ability of test compounds to inhibit the activity of JMJD2C was determined in 384-well plate format under the following reaction conditions: 0.3 nM JMJD2C, 300 nM H3K9me3-biotin labeled peptide (Anaspec cat #64360), 2 µM alpha-ketoglutaric acid in assay buffer of 50 mM HEPES, pH7.3, 0.005% Brij35, 0.5 mM TCEP, 0.2 mg/ml BSA, 50 µM sodium L-ascorbate, and 2 µM ammonium iron(II) sulfate. Reaction product was determined quantitatively by TR-FRET after the addition of detection reagent Phycolink Streptavidin-allophycocyanin (Prozyme) and Europium-anti-di-methylated histone H3 lysine 9 (H3K9me2) antibody (PerkinElmer) in the presence of 5 mM EDTA in LANCE detection buffer (PerkinElmer) at a final concentration of 50 nM and 1 nM, respectively.
The assay reaction was initiated by the following: 2 µl of the mixture of 900 nM H3K9me3-biotin labeled peptide and 6 µM alpha-ketoglutaric acid with 2 µl of 11-point serial diluted inhibitor in 3% DMSO were added to each well of the plate, followed by the addition of 2 µl of 0.9 nM JMJD2C to initiate the reaction. The reaction mixture was incubated at room temperature for 30 minutes, and terminated by the addition of 6 µl of 5 mM EDTA in LANCE detection buffer containing 100 nM Phycolink Streptavidin-allophycocyanin and 2 nM Europium-anti-H3K9me2 antibody. Plates were read by EnVisionMultilabel Reader in TR-FRET mode (excitation at 320 nm, emission at 615 nm and 665 nm) after 1 hour incubation at room temperature. A ratio was calculated (665/615) for each well and fitted to determine inhibition constant (IC50).

Structure (SMILES): CCc1ccc(CCn2cnc(-c3cc(-c4nn[nH]c4C(F)(F)F)ccn3)c2)cc1 [Example 95, 2-{1-[2-(4-ethylphenyl)ethyl]-1H-imidazol-4-yl}-4-[5-(trifluoromethyl)-1H-1,2,3-triazol-4-yl]pyridine]
IC50: > 10 µM

Structure (SMILES): FC(F)(F)c1[nH]nnc1-c1ccnc(-c2cn(CC3CCc4ccccc43)cn2)c1 (centres unmarked) [Example 83, 2-{1-[(2,3-dihydro-1H-inden-1-yl)methyl]-1H-imidazol-4-yl}-4-[5-(trifluoromethyl)-1H-1,2,3-triazol-4-yl]pyridine]
IC50: 1 to 10 µM

Structure (SMILES): COc1cccc2c1C(Cn1cnc(-c3cc(-c4nn[nH]c4C(F)(F)F)ccn3)c1)CCC2 (centres unmarked) [Example 107, 2-{1-[(8-methoxy-1,2,3,4-tetrahydronaphthalen-1-yl)methyl]-1H-imidazol-4-yl}-4-[5-(trifluoromethyl)-1H-1,2,3-triazol-4-yl]pyridine]
IC50: > 10 µM

Structure (SMILES): FC(F)(F)c1ccccc1CCn1cnc(-c2cc(-c3nn[nH]c3C(F)(F)F)ccn2)c1 [Example 60, 4-[5-(trifluoromethyl)-1H-1,2,3-triazol-4-yl]-2-(1-{2-[2-(trifluoromethyl)phenyl]ethyl}-1H-imidazol-4-yl)pyridine]
IC50: 1 to 10 µM

Structure (SMILES): Cn1cnc(-c2cc(-c3nn[nH]c3C(F)(F)F)ccn2)c1-c1ccc(F)cc1 [Example 97, 2-[5-(4-fluorophenyl)-1-methyl-1H-imidazol-4-yl]-4-[5-(trifluoromethyl)-1H-1,2,3-triazol-4-yl]pyridine]
IC50: > 10 µM

Structure (SMILES): CCOc1ccccc1CCn1cnc(-c2cc(-c3nn[nH]c3C(F)(F)F)ccn2)c1 [Example 59]
IC50: > 10 µM

Structure (SMILES): CC(C)(C)c1ccc(CCn2cnc(-c3cc(-c4nn[nH]c4C(F)(F)F)ccn3)c2)cc1 [Example 96, 2-{1-[2-(4-tert-butylphenyl)ethyl]-1H-imidazol-4-yl}-4-[5-(trifluoromethyl)-1H-1,2,3-triazol-4-yl]pyridine]
IC50: > 10 µM

Structure (SMILES): COc1ccc(CCn2cnc(-c3cc(-c4nn[nH]c4C(F)(F)F)ccn3)c2)cc1 [Example 93, 2-{1-[2-(4-methoxyphenyl)ethyl]-1H-imidazol-4-yl}-4-[5-(trifluoromethyl)-1H-1,2,3-triazol-4-yl]pyridine]
IC50: > 10 µM

Structure (SMILES): Fc1ccc2c(c1)C(n1cnc(-c3cc(-c4nn[nH]c4C(F)(F)F)ccn3)c1)CC2 (centres unmarked) [Example 85, 2-[1-(6-fluoro-2,3-dihydro-1H-inden-1-yl)-1H-imidazol-4-yl]-4-[5-(trifluoromethyl)-1H-1,2,3-triazol-4-yl]pyridine]
IC50: 1 to 10 µM

Structure (SMILES): CC(C)C(c1ccccc1)n1cnc(-c2cc(-c3nn[nH]c3C(F)(F)F)ccn2)c1 (centres unmarked) [Example 75, 2-[1-(2-methyl-1-phenylpropyl)-1H-imidazol-4-yl]-4-[5-(trifluoromethyl)-1H-1,2,3-triazol-4-yl]pyridine]
IC50: > 10 µM

Structure (SMILES): FC(F)(F)c1[nH]nnc1-c1ccnc(-c2cn(CC3CCCc4ccccc43)cn2)c1 (centres unmarked) [Example 58, 2-{1-[(1,2,3,4-tetrahydronaphthalen-1-yl)methyl]-1H-imidazol-4-yl}-4-[5-(trifluoromethyl)-1H-1,2,3-triazol-4-yl]pyridine]
IC50: > 10 µM

Structure (SMILES): COc1ccc2c(c1)CCCC2Cn1cnc(-c2cc(-c3nn[nH]c3C(F)(F)F)ccn2)c1 (centres unmarked) [Example 105, 2-{1-[(6-methoxy-1,2,3,4-tetrahydronaphthalen-1-yl)methyl]-1H-imidazol-4-yl}-4-[5-(trifluoromethyl)-1H-1,2,3-triazol-4-yl]pyridine]
IC50: > 10 µM

Results, then the compound that gave them:

IC50: > 10 µM
Structure (SMILES): Fc1ccc(Cn2cnc(-c3cc(-c4nn[nH]c4C(F)(F)F)ccn3)c2)c(F)c1 [Example 68, 2-{1-[(2,4-difluorophenyl)methyl]-1H-imidazol-4-yl}-4-[5-(trifluoromethyl)-1H-1,2,3-triazol-4-yl]pyridine]

IC50: > 10 µM
Structure (SMILES): FC(F)(F)c1[nH]nnc1-c1ccnc(-c2cn(CCc3ccccc3Cl)cn2)c1 [Example 57]

IC50: > 10 µM
Structure (SMILES): Fc1ccc(Cn2cnc(-c3cc(-c4nn[nH]c4C(F)(F)F)ccn3)c2)cc1 [Example 61, 2-{1-[(4-fluorophenyl)methyl]-1H-imidazol-4-yl}-4-[5-(trifluoromethyl)-1H-1,2,3-triazol-4-yl]pyridine]

IC50: > 10 µM
Structure (SMILES): Cc1ccc2c(c1)C(Cn1cnc(-c3cc(-c4nn[nH]c4C(F)(F)F)ccn3)c1)CCC2 (centres unmarked) [Example 103, 2-{1-[(7-methyl-1,2,3,4-tetrahydronaphthalen-1-yl)methyl]-1H-imidazol-4-yl}-4-[5-(trifluoromethyl)-1H-1,2,3-triazol-4-yl]pyridine]

IC50: > 10 µM
Structure (SMILES): Fc1cc(F)c(CCn2cnc(-c3cc(-c4nn[nH]c4C(F)(F)F)ccn3)c2)cc1F [Example 81, 4-[5-(trifluoromethyl)-1H-1,2,3-triazol-4-yl]-2-{1-[2-(2,4,5-trifluorophenyl)ethyl]-1H-imidazol-4-yl}pyridine]

IC50: > 10 µM
Structure (SMILES): Fc1cc(F)c(CCn2cnc(-c3cc(-c4nn[nH]c4C(F)(F)F)ccn3)c2)c(F)c1 [Example 82, 4-[5-(trifluoromethyl)-1H-1,2,3-triazol-4-yl]-2-{1-[2-(2,4,6-trifluorophenyl)ethyl]-1H-imidazol-4-yl}pyridine]

IC50: > 10 µM
Structure (SMILES): Cc1ccc(CCn2cnc(-c3cc(-c4nn[nH]c4C(F)(F)F)ccn3)c2)cc1 [Example 91, 2-{1-[2-(4-methylphenyl)ethyl]-1H-imidazol-4-yl}-4-[5-(trifluoromethyl)-1H-1,2,3-triazol-4-yl]pyridine]

IC50: > 10 µM
Structure (SMILES): Cc1ccc(Cn2cnc(-c3cc(-c4nn[nH]c4C(F)(F)F)ccn3)c2)c(F)c1 [Example 71, 2-{1-[(2-fluoro-4-methylphenyl)methyl]-1H-imidazol-4-yl}-4-[5-(trifluoromethyl)-1H-1,2,3-triazol-4-yl]pyridine]

IC50: > 10 µM
Structure (SMILES): FC(F)(F)c1[nH]nnc1-c1ccnc(-c2cn(Cc3ccc(Cl)cc3)cn2)c1 [Example 63, 2-{1-[(4-chlorophenyl)methyl]-1H-imidazol-4-yl}-4-[5-(trifluoromethyl)-1H-1,2,3-triazol-4-yl]pyridine]

IC50: > 10 µM
Structure (SMILES): Fc1cccc(Cl)c1CCn1cnc(-c2cc(-c3nn[nH]c3C(F)(F)F)ccn2)c1 [Example 80, 2-{1-[2-(2-chloro-6-fluorophenyl)ethyl]-1H-imidazol-4-yl}-4-[5-(trifluoromethyl)-1H-1,2,3-triazol-4-yl]pyridine]

IC50: > 10 µM
Structure (SMILES): Fc1cccc(CCn2cnc(-c3cc(-c4nn[nH]c4C(F)(F)F)ccn3)c2)c1 [Example 78, 2-{1-[2-(3-fluorophenyl)ethyl]-1H-imidazol-4-yl}-4-[5-(trifluoromethyl)-1H-1,2,3-triazol-4-yl]pyridine]
